Results reported in the NIST ThermoML archive (doi:10.1016/j.jct.2016.05.019).
Values joined by “and” are separate entries in the source; they are usually repeats but may differ in a detail not shown here. Equal entries are not always repeated.

Conditions: Liquid; for mass density: Bellows volumetry

CCC(C)C [2-methylbutane]
Conditions	mass density
280 K, 1000 kPa	633.54 kg/m3
280 K, 2000 kPa	634.7 kg/m3
280 K, 3000 kPa	635.86 kg/m3
280 K, 5000 kPa	638.02 kg/m3
280 K, 10000 kPa	643.42 kg/m3
280 K, 20000 kPa	653.11 kg/m3
280 K, 30000 kPa	661.46 kg/m3
280 K, 40000 kPa	669.03 kg/m3
280 K, 50000 kPa	675.94 kg/m3
280 K, 60000 kPa	682.44 kg/m3
280 K, 70000 kPa	688.43 kg/m3
280 K, 80000 kPa	694.03 kg/m3
280 K, 90000 kPa	699.3 kg/m3
280 K, 100000 kPa	704.35 kg/m3
280 K, 120000 kPa	713.77 kg/m3
280 K, 140000 kPa	722.2 kg/m3
280 K, 160000 kPa	729.89 kg/m3
280 K, 180000 kPa	737.33 kg/m3
280 K, 200000 kPa	744.07 kg/m3
298.14 K, 10200 kPa	627.35 kg/m3
298.14 K, 40600 kPa	656.53 kg/m3
298.14 K, 101400 kPa	694.83 kg/m3
298.14 K, 177400 kPa	727.57 kg/m3
300 K, 1000 kPa	613.77 kg/m3
300 K, 2000 kPa	615.18 kg/m3
300 K, 3000 kPa	616.54 kg/m3
300 K, 5000 kPa	619.26 kg/m3
300 K, 10000 kPa	625.53 kg/m3
300 K, 20000 kPa	636.61 kg/m3
300 K, 30000 kPa	646.19 kg/m3
300 K, 40000 kPa	654.71 kg/m3
300 K, 50000 kPa	662.36 kg/m3
300 K, 60000 kPa	669.45 kg/m3
300 K, 70000 kPa	675.91 kg/m3
300 K, 80000 kPa	682.03 kg/m3
300 K, 90000 kPa	687.64 kg/m3
300 K, 100000 kPa	692.98 kg/m3
300 K, 120000 kPa	702.76 kg/m3
300 K, 140000 kPa	711.75 kg/m3
300 K, 160000 kPa	719.81 kg/m3
300 K, 180000 kPa	727.5 kg/m3
300 K, 200000 kPa	734.71 kg/m3
320 K, 199 kPa	592.04 kg/m3
320 K, 210 kPa	592.07 kg/m3
320 K, 315 kPa	592.25 kg/m3
320 K, 502 kPa	592.61 kg/m3
320 K, 1000 kPa	593.5 kg/m3 and 592.72 kg/m3
320 K, 2000 kPa	595.25 kg/m3 and 594.35 kg/m3
320 K, 3000 kPa	596.07 kg/m3
320 K, 5000 kPa	599.33 kg/m3
320 K, 10000 kPa	606.77 kg/m3
320 K, 20000 kPa	619.58 kg/m3
320 K, 30000 kPa	630.46 kg/m3
320 K, 40000 kPa	639.89 kg/m3
320 K, 50000 kPa	648.39 kg/m3
320 K, 60000 kPa	656.03 kg/m3
320 K, 70000 kPa	662.98 kg/m3
320 K, 80000 kPa	669.62 kg/m3
320 K, 90000 kPa	675.83 kg/m3
320 K, 100000 kPa	681.48 kg/m3
320 K, 120000 kPa	691.83 kg/m3
320 K, 140000 kPa	701.5 kg/m3
320 K, 160000 kPa	710.26 kg/m3
320 K, 180000 kPa	718.37 kg/m3
320 K, 200000 kPa	725.65 kg/m3
323.13 K, 49030 kPa	645.8 kg/m3
323.13 K, 98070 kPa	678.79 kg/m3
323.13 K, 147100 kPa	703.2 kg/m3
323.13 K, 196130 kPa	722.79 kg/m3
340 K, 338 kPa	569.61 kg/m3
340 K, 420 kPa	569.78 kg/m3
340 K, 513 kPa	570.01 kg/m3
340 K, 1000 kPa	571.14 kg/m3 and 570.66 kg/m3
340 K, 2000 kPa	572.85 kg/m3
340 K, 3000 kPa	574.98 kg/m3
340 K, 5000 kPa	578.97 kg/m3
340 K, 10000 kPa	587.99 kg/m3
340 K, 20000 kPa	602.92 kg/m3
340 K, 30000 kPa	615.28 kg/m3
340 K, 40000 kPa	625.82 kg/m3
340 K, 50000 kPa	635.12 kg/m3
340 K, 60000 kPa	643.45 kg/m3
340 K, 70000 kPa	651.03 kg/m3
340 K, 80000 kPa	658.05 kg/m3
340 K, 90000 kPa	664.53 kg/m3
340 K, 100000 kPa	670.52 kg/m3
340 K, 120000 kPa	681.53 kg/m3
340 K, 140000 kPa	691.52 kg/m3
340 K, 160000 kPa	700.49 kg/m3
340 K, 180000 kPa	708.89 kg/m3
340 K, 200000 kPa	716.61 kg/m3
360 K, 550 kPa	544.65 kg/m3
360 K, 608 kPa	544.68 kg/m3
360 K, 609 kPa	544.84 kg/m3
360 K, 702 kPa	545.09 kg/m3
360 K, 1000 kPa	545.87 kg/m3 and 545.89 kg/m3
360 K, 2000 kPa	548.79 kg/m3
360 K, 3000 kPa	551.5 kg/m3
360 K, 5000 kPa	556.57 kg/m3
360 K, 10000 kPa	567.71 kg/m3
360 K, 20000 kPa	585.18 kg/m3
360 K, 30000 kPa	599.16 kg/m3
360 K, 40000 kPa	610.91 kg/m3
360 K, 50000 kPa	621.15 kg/m3
360 K, 60000 kPa	630.27 kg/m3

340 K
Conditions	mass density [kg/m3]	vapor or sublimation pressure [kPa]
–	569.21	328
